Data: patent publication US12331061B2, “Compounds having BET, estrogen receptor, and androgen receptor degradation activity and uses thereof” (ACCUTAR BIOTECHNOLOGY INC., priority 2019, dated 2025)

Legend:
Assay in all cases: Degradation of BET proteins in MCF7 cells, Western blot with densitometry
Assay type in all cases: cell-based
BRD4 = BRD4 (Homo sapiens, UniProt O60885); set-up: endogenous in cells; host or cells: MCF7; settings: 24 hour time course experiment; shown only in FIG. 1c
Experimental: (§1) MCF7 cells were plated in 24-well plates at 1.5×10^5 cells/well in DMEM growth medium containing 10% FBS and 1% Penicillin Streptomycin, and incubated overnight at 37° C. The following day, test compound was administered to the cells using 1000× compound stock solution prepared in DMSO at various concentrations. […] Cells were then washed with PBS and protein was collected in Laemmli sample buffer (1×; VWR International). Protein was isolated from cell lysate (approximately 25 μg) by SDS-PAGE and transferred to nitrocellulose membranes. Non-specific binding was blocked by incubating with blocking buffer (5% milk in Tris-buffered saline with 0.1% Tween 20 (“TBS-T”)) at room temperature for 60 minutes. The membrane was then incubated with primary antibodies (rabbit anti-BRD2 (1:1000, Cell Signaling), mouse anti-GAPDH (1:5,000, Santa Cruz), mouse anti-BRD3 (1:500, Abcam) and rabbit anti-BRD4 (1:500, Abcam)) overnight at 4° C., followed by washing (3 times) with TBS-T, and incubation with horseradish peroxidase-conjugated […] IgG (1:5,000, Jackson Immunoresearch) or goat anti-mouse IgG (1:5,000, Jackson Immunoresearch) for 60 minutes. After washing with TBS-T, blots were developed using an enhanced chemiluminescence kit (ThermoFisher Scientific) and the bands were imaged and quantified by densitometry (Bio-Rad).

BRD2 = target: T1, BRD2 (Homo sapiens, UniProt P25440); settings: for degradative activity towards BRD2 over a 24 hour time course: 24 hour time course experiment, shown only in FIG. 1c; for degradative activity towards BRD2: MCF7 cell line, 6 hours after administration, shown only in FIG. 1a, 1b, 2
T1 construct: MCF7 cells were plated in 24-well plates; endogenous in cells; host or cells: MCF7
Experimental: as §1

BRD3 = target: T2, BRD3 (Homo sapiens, UniProt Q15059); settings: for degradative activity towards BRD3 over a 24 hour time course: 24 hour time course experiment, shown only in FIG. 1c; for degradative activity towards BRD3: MCF7 cell line, 6 hours after administration, shown only in FIG. 1a, 1b, 2
T2 construct: endogenous in cells; host or cells: MCF7
Experimental: as §1

T2 sequence (Q15059 whole entry): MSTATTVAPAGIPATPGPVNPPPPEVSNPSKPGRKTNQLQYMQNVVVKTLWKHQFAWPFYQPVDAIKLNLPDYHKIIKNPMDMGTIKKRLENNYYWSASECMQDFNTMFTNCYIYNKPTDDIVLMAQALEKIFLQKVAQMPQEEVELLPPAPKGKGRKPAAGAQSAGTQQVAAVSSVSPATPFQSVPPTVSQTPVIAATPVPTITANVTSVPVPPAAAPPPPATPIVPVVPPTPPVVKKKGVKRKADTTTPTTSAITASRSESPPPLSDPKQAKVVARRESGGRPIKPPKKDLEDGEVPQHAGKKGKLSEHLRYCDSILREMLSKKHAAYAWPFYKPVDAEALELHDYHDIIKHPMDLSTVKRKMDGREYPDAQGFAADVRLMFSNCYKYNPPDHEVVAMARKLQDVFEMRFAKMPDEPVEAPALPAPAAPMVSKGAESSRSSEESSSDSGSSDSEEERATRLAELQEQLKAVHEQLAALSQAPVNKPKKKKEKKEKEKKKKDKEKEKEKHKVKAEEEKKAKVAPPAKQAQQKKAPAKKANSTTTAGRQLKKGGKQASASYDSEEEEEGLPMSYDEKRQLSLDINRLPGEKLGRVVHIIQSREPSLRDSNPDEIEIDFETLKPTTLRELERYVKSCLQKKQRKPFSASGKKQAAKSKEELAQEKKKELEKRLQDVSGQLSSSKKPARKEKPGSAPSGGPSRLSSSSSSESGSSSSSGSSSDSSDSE
T1 sequence (P25440 whole entry): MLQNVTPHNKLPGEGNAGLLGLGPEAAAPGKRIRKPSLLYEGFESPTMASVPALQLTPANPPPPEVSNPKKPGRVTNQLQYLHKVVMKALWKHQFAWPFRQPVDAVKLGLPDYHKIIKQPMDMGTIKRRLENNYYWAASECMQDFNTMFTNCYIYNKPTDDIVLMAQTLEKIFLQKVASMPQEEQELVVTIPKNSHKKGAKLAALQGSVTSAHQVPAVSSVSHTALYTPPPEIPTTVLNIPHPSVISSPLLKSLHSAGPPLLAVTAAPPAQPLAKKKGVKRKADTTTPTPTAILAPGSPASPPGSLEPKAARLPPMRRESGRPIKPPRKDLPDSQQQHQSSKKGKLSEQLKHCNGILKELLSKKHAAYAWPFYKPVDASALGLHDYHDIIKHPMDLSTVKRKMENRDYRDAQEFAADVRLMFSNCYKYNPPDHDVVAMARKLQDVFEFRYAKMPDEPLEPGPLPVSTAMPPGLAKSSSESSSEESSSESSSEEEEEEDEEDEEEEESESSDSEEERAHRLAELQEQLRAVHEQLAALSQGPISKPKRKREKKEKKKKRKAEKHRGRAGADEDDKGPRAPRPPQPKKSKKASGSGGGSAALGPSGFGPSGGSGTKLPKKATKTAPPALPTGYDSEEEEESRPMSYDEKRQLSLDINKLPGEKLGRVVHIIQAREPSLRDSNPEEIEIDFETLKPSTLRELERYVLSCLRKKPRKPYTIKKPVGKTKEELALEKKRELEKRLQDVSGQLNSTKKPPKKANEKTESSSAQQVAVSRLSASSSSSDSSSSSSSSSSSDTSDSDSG

SMILES | degradative activity towards BRD4 over a 24 hour time course (BRD4) | degradative activity towards BRD2 over a 24 hour time course (BRD2) | degradative activity towards BRD2 (BRD2) | degradative activity towards BRD3 over a 24 hour time course (BRD3) | degradative activity towards BRD3 (BRD3)
Cc1sc2c(c1C)C(c1ccc(Cl)cc1)=N[C@@H](CC(=O)NCCCCCCCCCCC(=O)Nc1cccc(CC(=O)NC3CCC(=O)NC3=O)c1)c1nnc(C)n1-2 (stereo partly drawn) [Compound 253035, 11-(2-((S)-4-(4-chlorophenyl)-2,3,9-trimethyl-6H-thieno[3,2-f][1,2,4]triazolo[4,3-a][1,4]diazepin-6-yl)acetamido)-N-(3-(2-((2,6-dioxopiperidin-3-yl)amino)-2-oxoethyl)phenyl)undecanamide] | degradative activity | degradative activity | degradative activity | degradative activity | degradative activity
Cc1sc2c(c1C)C(c1ccc(Cl)cc1)=N[C@@H](CC(=O)NCCCCCCCCCCC(=O)Nc1ccc(CC(=O)NC3CCC(=O)NC3=O)cc1)c1nnc(C)n1-2 (stereo partly drawn) [Compound 253034, 11-(2-((S)-4-(4-chlorophenyl)-2,3,9-trimethyl-6H-thieno[3,2-f][1,2,4]triazolo[4,3-a][1,4]diazepin-6-yl)acetamido)-N-(4-(2-((2,6-dioxopiperidin-3-yl)amino)-2-oxoethyl)phenyl)undecanamide] | degradative activity | degradative activity | degradative activity | degradative activity | degradative activity
